Reference: publication PMC10799935, “Discovery of a peripheral 5HT2A antagonist as a clinical candidate for metabolic dysfunction-associated steatohepatitis” (Nature Communications, 2024)
Values joined by “and” are separate entries in the source; they are usually repeats but may differ in a detail not shown here. Equal values may be shown once. Read-outs that look alike come from different tables or passages of the source.

Key:
[1] = target: T1, 5HT7 (h) (Homo sapiens, UniProt P34969); experiment: 5HT subtype antagonism assay (Eurofins Cerep): 5HT7; format: cell-based
T1 construct: host or cells: CHO cells
Description: The derivatives were evaluated at a concentration of 1 μM for their antagonist activity on the 5HT2A receptor (Tables 1–3)[33],[34]. Human 5HT2A stably transfected HEK293 cells (a type of cell derived from kidney embryos)[20] were seeded in a 96-well plate (Costar; 3603) at a density of 9 × 10^4 in 100 μL of minimum essential medium (Welgene; LM007-86) containing 10% dialyzed fetal bovine serum (Gibco; 30067–334) and 1% penicillin/streptomycin (Gibco; 15140-122) and kept in a 37 °C incubator for 24 h. The cells were stained with 100 μL of cytosolic calcium dye using the FLIPR calcium 6 assay solution (Molecular devices, #R8190) supplemented with 2.5 mM probenecid (Sigma; P8761) and incubated for 1 h at 37 °C. After 1 h, the designated amount of the compound was treated in each well and incubated for another 1 h at 37 °C. Then, the cells were loaded in a Flexstation 3 microplate reader (Molecular Devices; FlexStaion) and 50 μL of 5 μM 5HT (serotonin hydrochloride, Sigma; H9523) was injected from a source plate (Nunc 96-well polystyrene conical bottom MicroWell Plate, Thermo; 249662) and the fluorescence intensity (Ex/Em-485nm/ 525 nm) was measured. […]
Antagonism assay Source Stimulus Incubation Measured Detection Method […]

[2] = tested on: HFD-fed C57BL/6J mice; experiment: DIO mice: fasting glucose levels; format: in vivo, mouse; settings: PO, in mg/dL (unit assumed)
[3] = tested on: HFD-fed C57BL/6J mice; experiment: DIO mice: blood profiling (serum cholesterol, triglyceride); format: in vivo, mouse; settings: for Serum TG levels, Mean Diff. (Vehicle vs. treated) / Serum total cholesterol levels, Mean Diff. (Vehicle vs. treated) / Serum TG levels, group mean / Serum total cholesterol levels (CHO), group mean: DIO mice; for Serum TG levels, Mean Diff. (Vehicle vs. treated) / Serum total cholesterol levels, Mean Diff. (Vehicle vs. treated): Dunnett's multiple comparisons test; for Serum TG levels, group mean / Serum total cholesterol levels (CHO), group mean: PO
Description: Blood samples were obtained by cardiac puncture, and plasma was isolated. Blood profiling was performed by GC Pharma (Green Cross Corporation). Plasma TG and cholesterol were detected with an in vitro enzymatic colorimetric assay (CHOL2 and TRIGL; Roche, Germany) using a Cobas 8000 clinical analyzer with a c702 module (Roche).

[4] = male SD rats, oral [^14C]-11c 5 mg/kg
Description: Following blood collection, each anesthetized animal was euthanized by CO2 inhalation and carcasses were submerged in a dry ice/hexane bath. Frozen carcasses were stored at approximately -20 °C until processed for QWBA. Duplicate aliquots of approximately 0.1 g whole blood were weighed into combustion boats for analysis by LSC. Duplicate aliquots of approximately 0.1 mL plasma were weighed into scintillation vials and mixed with an appropriate volume of scintillation cocktail for analysis by LSC. The frozen carcasses were individually set in a mold, submerged in 5% (w/v) low viscosity carboxymethylcellulose (CMC), and embedded by placing the stage (mold) in a dry ice/hexane bath. […] Sagittal, 30-µm thick sections of the CMC-embedded carcasses, including QC standards, and of the CMC-embedded calibration standards were sectioned using a Vibratome 9800 Cryomicrotome (Vibratome; St. Louis, MO) with the temperature maintained at approximately -20 °C. […] The IPs were exposed for approximately 4 days while stored at room temperature in a lead-shielded box to minimize background radiation. Digitized phosphor images (autoradioluminograms) were generated in a dark room with subdued lighting using a GE Healthcare Typhoon 7000 Phosphor Imager (Raytest GmbH; Berlin, Germany) and analyzed using AIDA software (Raytest GmbH).

[5] = target: CYP2C9 (Homo sapiens, UniProt P11712); experiment: in vitro
[6] = target: CYP3A4 (Homo sapiens, UniProt P08684); experiment: in vitro
Sequence of CYP3A4 (P08684 whole entry): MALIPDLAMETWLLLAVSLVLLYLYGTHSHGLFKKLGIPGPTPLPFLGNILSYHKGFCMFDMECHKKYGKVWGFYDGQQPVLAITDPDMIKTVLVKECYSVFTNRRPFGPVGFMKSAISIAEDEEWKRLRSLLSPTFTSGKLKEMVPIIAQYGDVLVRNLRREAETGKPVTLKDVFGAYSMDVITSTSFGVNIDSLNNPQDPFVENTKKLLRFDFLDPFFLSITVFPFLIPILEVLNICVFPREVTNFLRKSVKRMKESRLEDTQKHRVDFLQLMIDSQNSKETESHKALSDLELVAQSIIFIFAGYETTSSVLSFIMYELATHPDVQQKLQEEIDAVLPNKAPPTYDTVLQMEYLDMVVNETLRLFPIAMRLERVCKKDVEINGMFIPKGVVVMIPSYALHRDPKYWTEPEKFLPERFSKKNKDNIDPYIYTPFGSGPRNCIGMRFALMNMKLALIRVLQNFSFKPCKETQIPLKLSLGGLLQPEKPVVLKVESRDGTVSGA

T1 sequence (P34969 whole entry): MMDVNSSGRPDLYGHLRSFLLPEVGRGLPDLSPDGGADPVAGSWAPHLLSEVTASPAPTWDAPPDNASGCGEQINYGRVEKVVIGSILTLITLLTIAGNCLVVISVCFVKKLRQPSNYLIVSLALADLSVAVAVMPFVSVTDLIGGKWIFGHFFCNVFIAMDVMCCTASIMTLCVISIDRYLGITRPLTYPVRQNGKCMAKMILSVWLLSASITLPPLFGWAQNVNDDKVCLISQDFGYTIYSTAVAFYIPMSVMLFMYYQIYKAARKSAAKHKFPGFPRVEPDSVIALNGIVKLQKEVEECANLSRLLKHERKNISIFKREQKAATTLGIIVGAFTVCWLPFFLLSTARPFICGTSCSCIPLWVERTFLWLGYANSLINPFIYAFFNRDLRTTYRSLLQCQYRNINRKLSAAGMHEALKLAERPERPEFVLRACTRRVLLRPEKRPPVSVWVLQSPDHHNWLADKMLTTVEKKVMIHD
Sequence of CYP2C9 (P11712 whole entry): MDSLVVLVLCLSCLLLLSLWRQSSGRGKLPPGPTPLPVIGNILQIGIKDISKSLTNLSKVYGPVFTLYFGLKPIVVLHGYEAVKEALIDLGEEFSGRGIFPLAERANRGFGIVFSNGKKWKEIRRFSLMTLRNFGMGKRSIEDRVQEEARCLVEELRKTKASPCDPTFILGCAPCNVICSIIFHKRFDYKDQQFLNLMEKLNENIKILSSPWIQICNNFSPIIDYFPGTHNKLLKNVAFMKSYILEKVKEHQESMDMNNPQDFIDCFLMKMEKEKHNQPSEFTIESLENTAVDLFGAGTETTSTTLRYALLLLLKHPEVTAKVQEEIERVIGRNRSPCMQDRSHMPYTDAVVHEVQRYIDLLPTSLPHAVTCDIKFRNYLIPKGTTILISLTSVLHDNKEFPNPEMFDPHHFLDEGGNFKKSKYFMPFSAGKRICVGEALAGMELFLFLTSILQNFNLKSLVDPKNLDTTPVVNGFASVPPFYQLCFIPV

Structure (SMILES): Cc1nc2n(c(=O)c1CCN1CCC(=C3c4ccc(Cl)cc4CCc4cccnc43)CC1)CCCC2O (stereo not drawn) [Compound 11c]
- Selectivity 7: % inhibition ([1]; concentration not given): 91%
- IC50 ([1]; read-out: Selectivity 7: IC50): 100 nM
- 6hr Fasting Glucose Levels, Average 7W ([2]; 5mpk, group mean): 158.2
- 6hr Fasting Glucose Levels, Average 7W ([2]; 5mpk, individual animals, 5 mg/kg): 172.5 and 172.0 and 150.5 and 154.0 and 119.5 and 188.0 and 151.0
- 6hr Fasting Glucose Levels, Blood Glucose Level ([2]; 5mpk, 2021.03.29, duplicate readings of individual animals, 5 mg/kg): 173.0 and 172.0 and 155.0 and 189.0 and 149.0 and 152.0 and 158.0 and 150.0 and 127.0 and 112.0 and 181.0 and 195.0 and 140.0 and 162.0
- 6hr Fasting Glucose Levels, Average 7W ([2]; 10mpk, group mean): 134.9
- 6hr Fasting Glucose Levels, Average 7W ([2]; 10mpk, individual animals, 10 mg/kg): 116.0 and 126.0 and 147.5 and 160.5 and 170.0 and 89.5
- 6hr Fasting Glucose Levels, Blood Glucose Level ([2]; 10mpk, 2021.03.29, duplicate readings of individual animals, 10 mg/kg): 117.0 and 115.0 and 121.0 and 131.0 and 148.0 and 147.0 and 163.0 and 158.0 and 171.0 and 169.0 and 89.0 and 90.0
- Serum TG levels, Mean Diff. (Vehicle vs. treated) ([3]; 5mpk): 32.28 mg/dL
- Serum total cholesterol levels, Mean Diff. (Vehicle vs. treated) ([3]; 5mpk): -18.72 mg/dL
- Serum TG levels, Mean Diff. (Vehicle vs. treated) ([3]; 10mpk): 36.37 mg/dL
- Serum total cholesterol levels, Mean Diff. (Vehicle vs. treated) ([3]; 10mpk): 0.9883 mg/dL
- Serum TG levels, group mean ([3]; 5mpk): 71.94 mg/dL
- Serum total cholesterol levels (CHO), group mean ([3]; 5mpk, 5 mg/kg): 220.6 mg/dL
- Serum TG levels, group mean ([3]; 10mpk): 67.86 mg/dL
- Serum total cholesterol levels (CHO), group mean ([3]; 10mpk, 10 mg/kg): 200.9 mg/dL
- serum triglyceride levels ([3]; high-fat diet-induced NAFLD mice): significant reduction
- AUC0-t (ng equiv./g) ([4]; Adrenal gland): 7210 ng equiv./g
- Cmax (ng equiv./g) ([4]; Adrenal gland): 1510 ng equiv./g
- Tissue: plasma ratio based on AUC0-t ([4]; Adrenal gland): 9.21
- Tmax ([4]; Adrenal gland): 6 h
- Cmax (ng equiv./g) ([4]; Brain, BQL = below the lower limit of quantitation 148 ng equiv./g): BQL
- Cmax (ng equiv./g) ([4]; Brain, BQL = below the lower limit of quantitation 148 ng equiv./g, listed as [^14C]-compound 11c): below the lower limit of quantitation
- AUC0-t (ng equiv./g) ([4]; Heart): 1800 ng equiv./g
- Cmax (ng equiv./g) ([4]; Heart): 369 ng equiv./g
- Tissue: plasma ratio based on AUC0-t ([4]; Heart): 2.30
- Tmax ([4]; Heart): 6 h
- AUC0-t (ng equiv./g) ([4]; Kidney): 7860 ng equiv./g
- Cmax (ng equiv./g) ([4]; Kidney): 1840 ng equiv./g
- Tissue: plasma ratio based on AUC0-t ([4]; Kidney): 10.0
- Tmax ([4]; Kidney): 6 h
- AUC0-t (ng equiv./g) ([4]; Large Intestine): 127000 ng equiv./g
- Cmax (ng equiv./g) ([4]; Large Intestine): 9800 ng equiv./g
- Tissue: plasma ratio based on AUC0-t ([4]; Large Intestine): 162
- Tmax ([4]; Large Intestine): 6 h
- AUC0-t (ng equiv./g) ([4]; Liver): 15400 ng equiv./g
- Cmax (ng equiv./g) ([4]; Liver): 2920 ng equiv./g
- Tissue: plasma ratio based on AUC0-t ([4]; Liver): 19.7
- Tmax ([4]; Liver): 6 h
- AUC0-t (ng equiv./g) ([4]; Lung): 4290 ng equiv./g
- Cmax (ng equiv./g) ([4]; Lung): 941 ng equiv./g
- Tissue: plasma ratio based on AUC0-t ([4]; Lung): 5.48
- Tmax ([4]; Lung): 6 h
- AUC0-t (ng equiv./g) ([4]; Pancreas): 15400 ng equiv./g
- Cmax (ng equiv./g) ([4]; Pancreas): 4330 ng equiv./g
- Tissue: plasma ratio based on AUC0-t ([4]; Pancreas): 19.7
- Tmax ([4]; Pancreas): 6 h
- AUC0-t (ng equiv./g) ([4]; Plasma): 783 ng equiv./g
- Cmax (ng equiv./g) ([4]; Plasma): 225 ng equiv./g
- Tissue: plasma ratio based on AUC0-t ([4]; Plasma): 1.00
- Tmax ([4]; Plasma): 0.5 h
- AUC0-t (ng equiv./g) ([4]; Small Intestine): 16600 ng equiv./g
- Cmax (ng equiv./g) ([4]; Small Intestine): 45000 ng equiv./g
- Tissue: plasma ratio based on AUC0-t ([4]; Small Intestine): 21.2
- Tmax ([4]; Small Intestine): 0.25 h
- AUC0-t (ng equiv./g) ([4]; Spleen): 9520 ng equiv./g
- Cmax (ng equiv./g) ([4]; Spleen): 2290 ng equiv./g
- Tissue: plasma ratio based on AUC0-t ([4]; Spleen): 12.2
- Tmax ([4]; Spleen): 6 h
- AUC0-t (ng equiv./g) ([4]; Stomach): 5130 ng equiv./g
- Cmax (ng equiv./g) ([4]; Stomach): 3240 ng equiv./g
- Tissue: plasma ratio based on AUC0-t ([4]; Stomach): 6.55
- Tmax ([4]; Stomach): 0.25 h
- AUC0-t (ng equiv./g) ([4]; Whole Blood): 589 ng equiv./g
- Cmax (ng equiv./g) ([4]; Whole Blood): 158 ng equiv./g
- Tissue: plasma ratio based on AUC0-t ([4]; Whole Blood): 0.75
- Tmax ([4]; Whole Blood): 0.5 h
- inhibition at 10 µM [5]: 3.17%
- inhibition at 10 µM [6]: 17.6%
